# Data taken from PubChem BioAssay (NCI).
# Several values for one entry are separate records, joined by “and”; a condition that tells them apart may be missing. Equal values may be shown once.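 Dose response: 5 concentrations. Exposure: 48 h. Format: 96-well plates. Endpoint: linear interpolation; highest concentration if not reached. GI50 is the concentration that inhibits growth by half. TGI marks complete inhibition of growth.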 Activity calls are given as the source filed them. No stated cut-off is given here; in the data, active means GI50 below about 0.43 µM; inactive means the rest.
# Tested on: DMS 114 small cell lung
# Experiment: inhibition of tumour cell growth, NCI panel, 48 h
Compound,TGI [µM],GI50
CC/C(C)=C1\CCC(CN2CCOCC2)C1=O (configuration not stated),18.6,
COC(=O)C1C(C(=O)OC)C2(OC)c3ccccc3-c3ccccc3C12 (configuration not stated),87.9,
O=C1OC(CC(=O)c2ccc(Cl)c(Cl)c2)C(Cl)=C1Cl (configuration not stated),> 100,
CCN(CC)CC(O)CNc1ccc(NCC2CO2)c2c1C(=O)c1ccccc1C2=O (configuration not stated),4.43,
CC(=O)c1cccc(N2COC(C)(C)c3nc4ccccc4n3C2)c1,> 100,
O=[N+]([O-])c1cccc(C2N3CCCCC3[C@@H]3c4[nH]c5ccccc5c4CCN23)c1 (some centres not stated),22.2,
Cc1c[nH]c2c(O)cc3c(c12)[C@H](CCl)CN3C(=O)c1cc2cc(NC(=O)Nc3ccc4[nH]c(C(=O)N5C[C@@H](CCl)c6c5cc(O)c5[nH]cc(C)c65)cc4c3)ccc2[nH]1,,0.000887 ng/mL and 0.888 ng/mL
CCOC(=O)NC(=O)c1cn(CC(=O)NCC(=O)NCC(=O)NCCCN2CCN(CCCNC(=O)CNC(=O)CNC(=O)Cn3cc(C(=O)NC(=O)OCC)c(=O)[nH]c3=O)CC2)c(=O)[nH]c1=O,> 100,
CCN(CC)CCCC(C)Nc1c2ccc(Cl)cc2nc2ccc(OC)cc12 (configuration not stated),3.1,
O=S(=O)(N/N=C/c1ccc(/C=N/NS(=O)(=O)c2ccccc2)cc1)c1ccccc1,> 100,
CCOC(=O)C(N)C[S][Sn]([CH3])([CH3])[Cl] (configuration not stated),> 100,97.4 µM
NNC(=O)/C(=C/c1ccc(Cl)c(Cl)c1)NC(=O)c1ccccc1,> 100,
CC(=O)OCC1OC(N2C(=O)C(=O)c3cc(C)ccc32)C(OC(C)=O)C(OC(C)=O)C1OC(C)=O (configuration not stated),> 100,
COc1cc(Cl)c2c3c(c(C(C)=O)oc13)CCC2,> 100,
CCCCc1c2c(nc3c1CCC/C3=C\c1ccccc1)C(=O)CCC2,41.7,
COc1ccc([N+]2=NC(c3ccc([N+](=O)[O-])cc3)=NN(c3ccccc3)C2)cc1,> 100,
C=CC1(C(=O)O)CCC(C(C)(C)C)CC1 (configuration not stated),> 100,
NC(=O)C(=Cc1ccc(C(O)P(=O)(O)O)cc1)C(N)=O (configuration not stated),> 100,
O=C(Nc1cc(Cl)c(Cl)cc1Cl)C(=O)C1C=CCS1(=O)=O (configuration not stated),> 100,
CCNC(=O)CCN(C(=O)O)S(=O)(=O)c1ccc(NC(=O)c2ccccc2)cc1,> 100,
O=C(/C=C/c1ccc([N+](=O)[O-])o1)N1CCN(Cc2ccccc2)CC1,27.4,
CC1C[C@@]2(c3ccccc3)C(=O)CCC[C@H]2N1 (some centres not stated),> 100,
CC1=C(C(=O)Nc2ccccc2C)C(c2ccc(Cl)c(Cl)c2)C(C(=O)Nc2ccccc2C)=C(C)N1,41,
CCCCOC(=O)NC(=O)c1cn(CCCOC(=O)CCCCCCCCC(=O)OCCCn2cc(C(=O)NC(=O)OCCCC)c(=O)[nH]c2=O)c(=O)[nH]c1=O,> 100,
Cc1[nH]c2ccccc2c1C1Cc2ccccc2N1C(=O)/C=C\C(=O)O (configuration not stated),64.4,
CCOC(=O)Nc1nc2ccc(Cn3cccc3)cc2[nH]1,> 100,

# Tested on: XF 498 CNS
# Experiment: inhibition of tumour cell growth, NCI panel, 48 h
Compound,TGI [µM],outcome,GI50 [µM]
c1ccc2c(c1)CCC/C2=N\OCC1CO1 (configuration not stated),> 100,,
CC/C(C)=C1\CCC(CN2CCOCC2)C1=O (configuration not stated),33.4,,
O=C1OC(CC(=O)c2ccc(Cl)c(Cl)c2)C(Cl)=C1Cl (configuration not stated),> 100,,
CC(=O)c1cccc(N2COC(C)(C)c3nc4ccccc4n3C2)c1,> 100,,
O=[N+]([O-])c1cccc(C2N3CCCCC3[C@@H]3c4[nH]c5ccccc5c4CCN23)c1 (some centres not stated),27,,
Cc1c[nH]c2c(O)cc3c(c12)[C@H](CCl)CN3C(=O)c1cc2cc(NC(=O)Nc3ccc4[nH]c(C(=O)N5C[C@@H](CCl)c6c5cc(O)c5[nH]cc(C)c65)cc4c3)ccc2[nH]1,,inactive,
CCOC(=O)NC(=O)c1cn(CC(=O)NCC(=O)NCC(=O)NCCCN2CCN(CCCNC(=O)CNC(=O)CNC(=O)Cn3cc(C(=O)NC(=O)OCC)c(=O)[nH]c3=O)CC2)c(=O)[nH]c1=O,> 100,,
CCN(CC)CCCC(C)Nc1c2ccc(Cl)cc2nc2ccc(OC)cc12 (configuration not stated),3.12,,
O=S(=O)(N/N=C/c1ccc(/C=N/NS(=O)(=O)c2ccccc2)cc1)c1ccccc1,> 100,,
CCOC(=O)C(N)C[S][Sn]([CH3])([CH3])[Cl] (configuration not stated),> 100,,> 100
NNC(=O)/C(=C/c1ccc(Cl)c(Cl)c1)NC(=O)c1ccccc1,> 100,,
O=C1c2ccccc2-c2cccc3ccc(Cc4ccc5ccccc5c4)c1c23,> 100,,
CCCCc1c2c(nc3c1CCC/C3=C\c1ccccc1)C(=O)CCC2,33.2,,
COc1ccc([N+]2=NC(c3ccc([N+](=O)[O-])cc3)=NN(c3ccccc3)C2)cc1,> 100,,
C=CC1(C(=O)O)CCC(C(C)(C)C)CC1 (configuration not stated),> 100,,
NC(=O)C(=Cc1ccc(C(O)P(=O)(O)O)cc1)C(N)=O (configuration not stated),> 100,,
CCNC(=O)CCN(C(=O)O)S(=O)(=O)c1ccc(NC(=O)c2ccccc2)cc1,> 100,,
O=C(/C=C/c1ccc([N+](=O)[O-])o1)N1CCN(Cc2ccccc2)CC1,30.4,,
CC1=C(C(=O)Nc2ccccc2C)C(c2ccc(Cl)c(Cl)c2)C(C(=O)Nc2ccccc2C)=C(C)N1,56.4,,
CCCCOC(=O)NC(=O)c1cn(CCCOC(=O)CCCCCCCCC(=O)OCCCn2cc(C(=O)NC(=O)OCCCC)c(=O)[nH]c2=O)c(=O)[nH]c1=O,> 100,,
Cc1[nH]c2ccccc2c1C1Cc2ccccc2N1C(=O)/C=C\C(=O)O (configuration not stated),47.8,,
CCOC(=O)Nc1nc2ccc(Cn3cccc3)cc2[nH]1,> 85,,

# Tested on: DMS 273 small cell lung
# Experiment: inhibition of tumour cell growth, NCI panel, 48 h
Compound,TGI [µM],GI50
c1ccc2c(c1)CCC/C2=N\OCC1CO1 (configuration not stated),> 100,
CC/C(C)=C1\CCC(CN2CCOCC2)C1=O (configuration not stated),32.4,
COC(=O)C1C(C(=O)OC)C2(OC)c3ccccc3-c3ccccc3C12 (configuration not stated),43,
O=C1OC(CC(=O)c2ccc(Cl)c(Cl)c2)C(Cl)=C1Cl (configuration not stated),> 100,
CCN(CC)CC(O)CNc1ccc(NCC2CO2)c2c1C(=O)c1ccccc1C2=O (configuration not stated),1.68,
CC(=O)c1cccc(N2COC(C)(C)c3nc4ccccc4n3C2)c1,> 100,
O=[N+]([O-])c1cccc(C2N3CCCCC3[C@@H]3c4[nH]c5ccccc5c4CCN23)c1 (some centres not stated),26,
Cc1c[nH]c2c(O)cc3c(c12)[C@H](CCl)CN3C(=O)c1cc2cc(NC(=O)Nc3ccc4[nH]c(C(=O)N5C[C@@H](CCl)c6c5cc(O)c5[nH]cc(C)c65)cc4c3)ccc2[nH]1,,0.000887 ng/mL and 0.888 ng/mL
CCOC(=O)NC(=O)c1cn(CC(=O)NCC(=O)NCC(=O)NCCCN2CCN(CCCNC(=O)CNC(=O)CNC(=O)Cn3cc(C(=O)NC(=O)OCC)c(=O)[nH]c3=O)CC2)c(=O)[nH]c1=O,> 100,
CCN(CC)CCCC(C)Nc1c2ccc(Cl)cc2nc2ccc(OC)cc12 (configuration not stated),2.04,
O=S(=O)(N/N=C/c1ccc(/C=N/NS(=O)(=O)c2ccccc2)cc1)c1ccccc1,> 100,
CC[C@@H]1OC2(C)CC(S(=O)(=O)c3ccccc3O)CC1O2 (some centres not stated),> 100,
